These results are taken from EP0020955A1, “Geometrical isomers of 4,4-dimethyl-1-phenyl-2-(1,2,4-triazole-1-yl)-1-penten-3-ols, process for their preparation and medicament containing them” (BAYER AG, priority 1979, dated 1981).

In brackets after ≈: the same amount, converted by molar mass.

One assay has as its system Trichophyton mentagr. In words: Antifungal in vitro activity, agar dilution test (MIC). It is filed as cell-based, Trichophyton mentagrophytes. The following applies: Kimmig agar, inoculum 2 - 5 x 10^3 fungal particles per spot, dermatophytes 96 h, 27°C. The text has this:
(§1) Versuchsbeschreibung: • Die in-vitro-Wirksamkeit - gemessen anhand der minimalen Hemmkonzentration - wurde im Agarverdünnungstest ermittelt. Auf Serien von Kimmig - Agarplatten, die die entsprechenden Wirkstoffkonzentrationen im Agar gelöst enthielten, wurden mit Hilfe eines automatischen Beimpfungsgerätes Proben der Keimsuspesionen tropfenförmig aufgebracht. Das Inokulum betrug 2 - 5 x 10^3 Pilzpartikel pro Impfpunkt. Im Falle der Hefen lag die Bebrütungsdauer bei 24 Stunden, im Falle der Dermatophyten bei 96 Stunden; Bebrütungstemperatur 27°C.

A further assay concerns Microsporon canis. The description is as above. The format is cell-based. The following applies: Kimmig agar, inoculum 2 - 5 x 10^3 fungal particles per spot, dermatophytes 96 h, 27°C.
Description: as §1

A further assay concerns Torulopsis glabrata. Described as above. It is filed as cell-based. The note with it: Kimmig agar, inoculum 2 - 5 x 10^3 fungal particles per spot, yeasts 24 h, 27°C.
Description: as §1

The subject of the next assay is Aspergillus fumigatus. The assay is described as above. The note with it: Kimmig agar, inoculum 2 - 5 x 10^3 fungal particles per spot, 27°C. The format is cell-based.
Description: as §1

A further assay deals with Candida albicans. Described as above. It is filed as cell-based. The following applies: Kimmig agar, inoculum 2 - 5 x 10^3 fungal particles per spot, yeasts 24 h, 27°C.
Description: as §1

The test system of assay [1] is Trichophyton mentagrophytes. In words: Antimicrobial in vivo activity (local and oral) in experimental guinea pig trichophytosis. Also on record: species or system Meerschweinchen der Rasse Pirbright-white. The note with it: for Wirkung lokale Therapie (1%-ige Lösung): local, 1 x daily from day 3 p.i., 1% solution in Dimethylsulfoxid : Glycerin = 1 : 4. The text has this: Versuchsbeschreibung: • Weiße Meerschweinchen der Rasse Pirbright-white werden auf dem geschorenen, nicht skarifizierten Rücken mit einer Mikro- und Makrokonidien-Suspension von Trichophyton mentagrophytes infiziert. Bei unbehandelten Tieren entwickelt sich innerhalb 12 Tagen p.i. das typische Bild einer Dermatophytose mit Rötung, Schuppung und Haarausfall bis zum totalen Integument-Defekt an der Infektionsstelle. […]

Another assay deals with Candida-Zellen. Kind of assay: Antimicrobial in vivo activity (oral) in mouse candidosis. Also on record: species or system Mäuse vom Typ SPF-CF. The note with it: mice infected i.v. with Candida; 12,5 bis 25mg/kg 2 x daily over 5 days oral; survivors on day 6 p.i. The protocol: Mäuse vom Typ SPF-CF werden intravenös mit 1-2 x 10^6 1 logarithmisch wachsenden Candida-Zellen, suspendiert in physiologischer Kochsalzlösung, infiziert. Die Tiere werden mit Dosierungen von 12,5 bis 25mg/kg Körpergewicht 2 x täglich über 5 Tage oral behandelt.
Unbehandelte Tiere starben 3 bis 6 Tage post infektionem. Die Ueberlebensrate am 6.Tag post infektionem betrug bei unbehandelten Kontrolltieren etwa 5 %.

Turning to “1-(4-Chlorphenyl)-4,4-dimethyl-2-(1,2,4-triazol-1-yl)-1-penten-3-ol [geometrisches Isomerengemisch (bekannt)]”, the “Minimale Hemmkonzentration” value in the assay on Trichophyton mentagr. was under 1 µg/mL; in the assay with Microsporon canis it was 8 µg/mL; with Torulopsis glabrata, 4 µg/mL; in the assay with Aspergillus fumigatus, 8 µg/mL; in the assay with Candida albicans, 8 µg/mL. Besides, the “Wirkung lokale Therapie (1%-ige Lösung)” value in assay [1] is given as “schwache Wirkung”. Further, the Wirkung entry in the assay with Candida-Zellen is reported as “+++ (Wirkung = ≥60% Ueberlebende am 6.Tag p.i.)”.

For `CC(C)(C)C(O)C(=Cc1ccc(Cl)cc1)n1cncn1` (single isomer, unassigned) [Form A, 1-(4-Chlorphenyl)-4,4-dimethyl-2-(1,2,4-triazol-1-yl)-1-penten-3-ol], the “Minimale Hemmkonzentration” value in the assay on Trichophyton mentagr. is 4 µg/mL; in the assay on Microsporon canis it was 32 µg/mL; in the assay with Aspergillus fumigatus it was 32 µg/mL; in the assay on Candida albicans it was 4 µg/mL. The MIC with Torulopsis glabrata (Nakaseomyces glabratus, 24 h, read-out: Minimale Hemmkonzentration) is 1 µg/mL (≈ 3.43 µM). For the same molecule, the Wirkung result in the assay with Candida-Zellen is given as “kW (keine Wirkung)”.

On to `CC(C)(C)C(O)C(=Cc1ccc(Cl)cc1)n1cncn1` (single isomer, unassigned) [Form B(1), 1-(4-Chlorphenyl)-4,4-dimethyl-2-(1,2,4-triazol-1-yl)-1-penten-3-ol], for which the “Minimale Hemmkonzentration” value in the assay with Trichophyton mentagr. was under 1 µg/mL; with Microsporon canis it was under 1 µg/mL; in the assay on Torulopsis glabrata, under 1 µg/mL; in the assay with Aspergillus fumigatus, 1 to 4 µg/mL; with Candida albicans, under 1 µg/mL. Further, the “Wirkung lokale Therapie (1%-ige Lösung)” value in assay [1] is given as “sehr gute Wirkung”. For the same molecule, the “Wirkung orale Therapie (50mg/kg/die)” value in assay [1] (oral, 1 x daily from day of infection, aqueous solution) is “sehr gute Wirkung”. The Wirkung result with Candida-Zellen is given as “+++++ (sehr gute Wirkung = >95% Ueberlebende am 6.Tag p.i.)”.
